This is an account of results in US20170273948A1, “USE OF SIGMA RECEPTOR LIGANDS IN OSTEOARTHRITIS” (LABORATORIOS DEL DR ESTEVE S.A., priority 2014, published 2017).

Assay [1] relates to osteoarthritic-induced allodynia (MIA-induced osteoarthritis). As to the kind of experiment: MIA-induced osteoarthritis in rats: mechanical (tactile) allodynia, paw withdrawal threshold to von Frey filaments. The settings on record: for progressive amelioration of the basal pain (PRE) found before daily treatments: Example A, three weeks i.p. b.i.d.; for progressive amelioration of the basal pain (PRE) found before daily treatments / analgesia (analgesic effect, POST) / analgesic effect (POST): example 1 60 mg/kg, Tramadol 20 mg/kg; for analgesia (analgesic effect, POST): day 1, single treatment, i.p.; for analgesia (analgesic effect, POST) / analgesic effect (POST): 30 min after treatment; for analgesic effect (POST): day 22, after three weeks of treatment i.p. b.i.d.; for pain after treatment discontinuation (wash out): versus initial situation. Type of assay: in vivo, rat. The method, then:
Male Sprague-Dawley rats (Harlan, San Pietro Nastisone, Udine, Italia), weighing 50-75 g on arrival at the laboratory, were used. Animals were allowed to acclimate for one week in groups of five per cage in a room with constant temperature (21±1° C.) and relative humidity (60%), and free access to food and water ad libitum. Automatic light-on and -off allowed alternate light-dark cycles of 12 h:12 h, with light-on at 7:00 a.m. Procedures were approved by the Committee on Animal Research Ethics of ESTEVE and conformed to the guidelines of the IASP (Zimmermann, 1983). In particular, the duration of the experiments was kept as short as possible and the number of rats used was minimized.
Osteoarthritis in rats was induced by intraarticular (i.a.) injection of monosodium iodoacetate (MIA) in the right knee joint, essentially as described by Dunham et al. (1993). After one week of acclimation, rats were briefly anesthetized with isoflurane (5% in 02 at 600 cc/min; IsoFlo®, Veterinaria ESTEVE, MI, Italy) until lack of response to a toe pinch. Surgical area was swabbed with chlorohexidine and alcohol, then a single injection of MIA (50 μl of a 40 mg/ml solution in 0.9% saline, i.e. equal to 2 mg/injection) was delivered using a 28-gauge needle inserted into the joint space of the knee through the intra-patellar ligament, by a gentle flexion of the knee. Sham animals received, in parallel, an equal volume of 0.9% sterile saline.
The MIA dose to obtain a prolonged, marked decrease in mechanical thresholds to von Frey filaments pressure was selected on the basis of a dose-response experiment (not shown). After recovery, animals were returned to their home cage.
Rats […] to the test conditions beforehand were assigned into wire mesh bottom cylinders (transparent metacrylate, 300 mm high×200 mm diameter) and allowed to acclimatize prior the start of the experiment. Tactile allodynia was assessed by determination of the paw withdrawal threshold (PWT) to von Frey filaments stimulation, starting 1 to 15 grams, on the plantar surface of the hind paw. Each filament was applied 3 s until a withdrawal response occurred. A single response indicated a positive response. PWTs were assessed in both the inflamed (ipsilateral) and non-inflamed (contralateral) hind paw and expressed as grams. Control thresholds in the contralateral paw were established in a similar fashion. Nociceptive thresholds were measured prior to MIA injection (Day 0) then after 2 weeks (Day 14) in order to assess allodynia. Only rats with a significant decrease in the minimal pressure (threshold) to trigger ipsilateral versus contralateral hindpaw withdrawal were included in the pharmacological groups; non-responders (noninjured animals) were considered an exclusion criteria. Each animal was used in only one experiment, after which it was sacrificed by CO2.
OA was induced by MIA injection at day −14 in the intra-patellar ligament of the right hindpaw. Sham animals received, in parallel, 50 μl of sterile saline solution. Two weeks later, allodynic rats were characterized by a marked decrease in the minimal pressure (threshold) to trigger withdrawal of the ipsilateral hindpaw (vs. the contralateral hindpaw) when stimulated by using von Frey monofilaments. From day 1 rats received chronic treatment (i.p, b.i.d.) for three weeks (until day 22) with Example 1 or Tramadol for three weeks, and treatment was then discontinued and mechanical allodynia evaluated after 2 days and 7 days (days 24 and 29, respectively) (wash-out period) (FIG. 1).
Two weeks after MIA injection into the knee, rats suffering from mechanical allodynia received a chronic treatment (3 weeks i.p, b.i.d.) with Example 1 (60 mg/kg, FIG. 2A) or Tramadol (20 mg/kg, FIG. 2B). […]

Assay [2] shares this test system. Described as above. In kind it is in vivo, rat. The settings on record: for progressive amelioration of the basal pain (PRE) found before daily treatments: Example B, i.p. b.i.d., oxycodone 2.5 mg/kg; for progressive amelioration of the basal pain (PRE) found before daily treatments / analgesia (POST): Ex.3 40 mg/kg; for analgesia (POST): day 1, single treatment, i.p., 30 min after treatment, Oxycodone 2.5 mg/kg; for analgesic effect (POST): day 29, repeated daily treatments i.p. b.i.d., Ex. 3 40 mg/kg after four weeks, Oxycodone 2.5 mg/kg after three weeks.

The target of assay [3] is sigma (σ-2) site (Homo sapiens, UniProt Q5BJF2). The note with it: cited from earlier work.
sigma (σ-2) site, sequence (Q5BJF2 whole entry): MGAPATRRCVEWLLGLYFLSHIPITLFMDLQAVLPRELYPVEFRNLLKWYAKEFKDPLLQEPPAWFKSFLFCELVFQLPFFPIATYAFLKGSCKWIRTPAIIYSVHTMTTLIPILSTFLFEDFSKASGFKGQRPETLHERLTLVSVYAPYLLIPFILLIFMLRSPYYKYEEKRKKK
Assay [4] concerns the target sigma 1 (σ-1) site (Homo sapiens, UniProt Q99720). The note with it: cited from earlier work.
The mark [5] stands for this setting: listed as example 1, hydrochloride.

Counter-ions that a name gives are not always drawn.

sigma 1 (σ-1) site, sequence (Q99720 whole entry): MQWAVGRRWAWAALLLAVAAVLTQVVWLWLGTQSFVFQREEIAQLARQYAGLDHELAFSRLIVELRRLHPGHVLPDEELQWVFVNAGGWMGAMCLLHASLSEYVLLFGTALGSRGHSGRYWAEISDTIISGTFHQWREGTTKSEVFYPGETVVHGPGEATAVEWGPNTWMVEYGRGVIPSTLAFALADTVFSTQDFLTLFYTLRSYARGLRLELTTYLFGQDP

Take `COc1cccc(C2(O)CCCCC2CN(C)C)c1` (stereo not drawn) [Tramadol, reference compound]: in assay [1], the “progressive amelioration of the basal pain (PRE) found before daily treatments” value (shortened to “progressive amelioration”) was “not”; the “analgesia (analgesic effect, POST)” value is “around 90%”; the “analgesic effect (POST)” value was about 10%.
Regarding `CC(=O)N1CCN(CCOCc2ccn(-c3ccc(F)c(F)c3)n2)CC1` [Example 3, 1-(4-(2-((1-(3,4-difluorophenyl)-1H-pyrazol-3-yl)methoxy)ethyl)piperazin-1-yl)ethanone hydrochloride], in assay [2], the “progressive amelioration” value is given as “progressively ameliorates the basal pain”, the “analgesia (POST)” value is recorded as “around 5%” and the “analgesic effect (POST)” value is “around 60%”. Also, the “reduction of basal pain (PRE) found before daily treatments” value in assay [2] (day 30, Ex.3 40 mg/kg i.p. b.i.d.) was determined as 65%.
On to `COc1ccc2c3c1O[C@H]1C(=O)CC[C@@]4(O)[C@@H](C2)N(C)CC[C@]314` [Oxycodone, reference compound], for which, in assay [2], the “progressive amelioration” value is on record as “not”, the “analgesia (POST)” value is about 65% and the “analgesic effect (POST)” value is reported as about 15%.
As to SKF 10047, the “affinity for the sigma (σ-2) site” value in assay [3] is “micromolar”. Besides, the “affinity for the sigma 1 (σ-1) site” value in assay [4] was “nanomolar”.
Turning to `Cc1cc(OCCN2CCOCC2)nn1-c1ccc2ccccc2c1` [Example 1, 4-{2-[5-Methyl-1-(naphthalen-2-yl)-1H-pyrazol-3-yloxy]ethyl}morpholine hydrochloride], the “progressive amelioration” value in assay [1] is “progressively ameliorates the basal pain”. Moreover, the “analgesia (analgesic effect, POST)” value in assay [1] (hydrochloride) was about 40%; in assay [1] (setting [5]) it was “around 40%”. In addition, the entries for the “pain after treatment discontinuation (wash out)” value in assay [1] (day 2 after discontinuation (day 24)) and in assay [1] (day 7 after discontinuation (day 29)) were “still reduced” and “went back to the initial situation”, respectively. For the same compound, the results for the “analgesic effect (POST)” value in assay [1] (hydrochloride) and in assay [1] (setting [5]) were 90% and “around 90%”, respectively. Moreover, the “reduction of basal pain (PRE) found before daily treatments” value in assay [1] (day 22, before first morning administration, example 1 60 mg/kg i.p. b.i.d.) is 80%. Moreover, in assay [1] (repeated treatment i.p. b.i.d. for three weeks), the “analgesic tolerance (loss of analgesic efficacy following repeated treatment)” value is on record as “does not induce analgesic tolerance”.
